Test results published in patent US11479770B2, “Use of p38 inhibitors to reduce expression of DUX4” (Fulcrum Therapeutics, Inc., priority 2017, dated 2022).

How the values were obtained:
Type in all cases: cell-based, human
myogenin (MYOG) mRNA = assay: MYOG mRNA expression (qPCR) in FSHD myotubes; conditions: multiple concentrations
Protocol: (§1) On day 0, the media was changed to differentiation media. Plates were removed from the incubator and the growth medium was aspirated, plates were washed once with PBS, 100 μL, for 96-wells and 1 mL for a 6-well plate, 100 μL, or 2 mL of differentiation medium was added per well, 96- or 6-well respectively. Antisense oligonucleotides or drug were added at the desired concentration, and the plates were put back in the incubator and incubated for 3-4 days.
(§2) Cells were removed from the incubator and media aspirated. Cells were quickly lysed following one of the following protocols: for lysis in 96-well plates, direct lysis and one-step RT-Preamp qPCR was performed according to the protocol described below. For each 96-well, a mix containing: 19.5 μL Roche Realtime Ready lysis buffer, 0.25 μL RNAse inhibitor, 0.25 μL DNAseI (from Thermo not the included one in the kit) was prepared. 20 μL of the mix was added to each well, mixed 5 times, and incubated 5 minutes at RT or alternatively shaken vigorously for 15 minutes. Lysis was observed under the microscope. Samples were frozen −80° C. at least for 15 minutes.
For qPCR, cell lysate was diluted 1:10, and 2 μL was used for a 10 μL 1-step RT-qPCR reaction for detection of GAPDH, RPLPO, TBP, MYOG, FRG1, MYH3, ACTN2, etc. Per 10 μL reaction, the reaction mix included: 2 μL of RNA (1:10 dilution lysate), 5 μL of Fast Advanced Taqman Master Mix (2×), 0.25 μL of RT enzyme mix (40×), 0.5 μL of Taqman probe set (20×), and 2.25 μL of H2O. The following reaction protocol was run on the QuantStudio 7: 48° C. for 15 min, 50° C. for 2 min, 95° C. for 30 sec, 40×, 95° C. for 5 sec, 60° C. for 30 sec, after which the plates were read as specified by the manufacturer (Thermo).
(§3) Wild type myotubes and mature patient-derived FSHD myotubes that express DUX4 protein were treated with DMSO vehicle control or multiple concentrations of various p38α/β inhibitors with different ranges of isoform and kinome selectivity, including SB239063 (FIG. 4A), VX-702 (FIG. 4B), Pamapimod (FIG. 4C), and TAK-715 (FIG. 4D). After treatment, the control and treated cells were processed for realtime PCR quantification of MBD3L2 mRNA (DUX4 downstream gene) and myogenin (MYOG) mRNA (control) expression.

active Caspase-3 = assay: Apoptosis by active Caspase-3 in FSHD myotubes; conditions: 1 μM; to level similar to healthy control line
Protocol: Briefly, cells were fixed in 4% paraformaldehyde and permeabilized in […] for 10 min at room temperature. Cells were permeabilized with PBST (1× PBS solution with 0.1% Triton X-100) before blocking with 10% Normal Donkey Serum or 3% BSA (NDS) in PBST. Cells were then incubated with appropriately diluted primary antibodies in PBST with 5% NDS for 1 hours at room temperature or 12 hours at 4° C., washed with PBST for 3 times at room temperature, and then incubated with desired secondary antibodies in TBST with 5% NDS and DAPI to counterstain the nuclei. DUX4 was detected by immunocytochemistry using the E5-5 antibody in differentiated FSHD myotubes. Activated Caspase-3 was detected using a commercially available antibody (https://www.cellsignal.com/products/primary-antibodies/cleaved-caspase-3-asp175-antibody/9661).
Apoptosis was measured by active Caspase-3 levels in FSHD myotubes in vitro as described in Materials and Methods. Apoptosis was detected in a sporadic manner in a subset of myotubes in culture as shown by the white circles and magnified region in FIG. 9A. Active Caspase-3 signal was quantified in FSHD myotubes that had been treated with FTX-1821 at different concentrations (FIG. 9B). […] No change in active Caspase-3 signal was observed following DMSO treatment. […]

[1] = test system: MBD3L2 mRNA (DUX4 downstream gene); assay: MBD3L2 mRNA expression (qPCR) in FSHD myotubes
Protocol: as §1, §2
1-step RT-Preamplification was used for detection of DUX4 downstream genes, i.e., MBD3L2, ZSCAN4, LEUTX, TRIM43, KHDC1L, and POL2RA-VIC was used as endogenous control. Per 10 μL reaction, the reaction mix included: 2.25 μL of RNA (1:10 dilution lysate), 5 μL of Taqman Pre-Amp Master Mix (2×), 0.25 μL of RT enzyme mix (40×), 2.5 μL of Taqman probe set (0.2×)*. * For pooling the TaqMan Assays, equal volumes of each 20× TaqMan® Gene Expression Assay were used, and up to 100 assays were combined. For example, to pool 50 TaqMan assays, 10 μL of each assay were combined in a microcentrifuge tube. The pooled TaqMan assays were diluted using 1× TE buffer so that each assay was at a final concentration of 0.2×. For the above example, 500 μL of 1× TE buffer was added to the pooled TaqMan assays for a total final volume of 1 mL. The QuantStudio7 protocol was used at 48° C. 15 min, 95° C. 10 min, 10 cycles: 95° C. 15 sec, 60° C. 4 min, and 4° C. infinite Samples were then diluted to 50 μL and continued with the qPCR step. Per 10 μL reaction, the reaction mix included: 2 μL of Preamp dilution, 5 μL of Fast Advanced Taqman Master Mix (2×), 0.5 μL of Taqman probe set (20×), and 2.5 μL of H2O. When multiplexing, the volume was adjusted to 10 μL total. The following program was run on the QuantStudio7: 50° C. for 2 min, 95° C. for 30 sec, 40×, 95° C. for 5 sec, 60° C. for 30 sec, and plates were read as per the manufacturers specifications (Thermo).
as §3

DUX4-fl mRNA = assay: DUX4 / DUX4-fl mRNA expression in FSHD myotubes
Protocol: cDNA preparation. 10 μL reactions included 1 μL of RNA (1 μg), 0.5 μL of Oligo dT, 0.5 μL of 10 mM dNTPs, and 4.5 μL of H2O. Reaction samples were incubated at 65° C. for 2 min and quickly moved to ice and held at least 1 min before adding the enzyme mix, which included 2 μL of 5× First strand Buffer, 0.5 μL of 0.1M DTT, 0.5 μL of RNAse inhibitor, 0.5 μL of SSIV RT. The samples were incubated at 55° C. for 20 min and 80° C. for 10 min, followed by cool down to 4° C. […]
DUX4 qPCR with nested primers was performed in a 10 μL reaction containing 1 μL of DUX4 pre amplification DNA, 5 μL of 2× IQ SYBR Mix, 0.4 μL of 10 μM TJ38F, 0.4 μL of 10 μM TJ41R, and 3.2 μL H2O. […] 10 seconds, then the plates were read on QuantStudio7 as per manufactures instruction (Thermo). […]
Wild type myotubes were treated with DMSO control vehicle, and mature patient-derived FSHD myotubes that express DUX4 protein were treated with DMSO vehicle control or 1 μM of a DUX4 sequence-directed antisense oligonucleotide (ASO; FTX-2) purchased from Exiqon. After treatment, the myotubes were lysed in 19.5 μL of Roche Real Time Ready Lysis Buffer, 0.25 μL of DNAse1 (Ambion, AM2222), 0.25 μL of Protector RNase Inhibitor (Roche, 3335402001), and the RNA was collected in an RNeasy Micro Kit Master Mix. […]

[2] = test system: ZSCAN4, TRIM43, MBD3L2, LEUTX, and KHDC1L; assay: DUX4-regulated downstream gene expression (real time PCR) in FSHD myotubes; conditions: 1 μM ASO
Protocol: Wild type myotubes were treated with DMSO control vehicle, and mature patient-derived FSHD myotubes that express DUX4 protein were treated with DMSO vehicle control or 1 μM of a DUX4 sequence-directed antisense oligonucleotide (ASO; FTX-2) purchased from Exiqon. After treatment, the myotubes were lysed in 19.5 μL of Roche Real Time Ready Lysis Buffer, 0.25 μL of DNAse1 (Ambion, AM2222), 0.25 μL of Protector RNase Inhibitor (Roche, 3335402001), and the RNA was collected in an RNeasy Micro Kit Master Mix. Expression levels of DUX4-regulated downstream genes (ZSCAN4, TRIM43, MBD3L2, LEUTX, and KHDC1L) was determined by real time PCR (ThermoFisher Scientific, 4484262), ZSCAN4 Taqman Assay (ThermoFisher Scientific, Hs00537549_m1, FAM-MGB), MYOG Taqman Assay (ThermoFisher Scientific, Hs01072232_m1, JUN-QSY), RPLPO Taqman Assay (ThermoFisher Scientific, Hs99999902_m1), and/or LEUTX Taqman Assay (ThermoFisher Scientific, Hs00418470_m1). Ct values were extracted from QuantStudio Realtime PCR software, and Genedata was used to calculate relative levels of expression using POLR2A as a housekeeping gene.

Q: Which “impact to MYOG mRNA expression” value (myogenin (MYOG) mRNA) does the source give for `NC(=O)c1ccc(N(C(N)=O)c2c(F)cccc2F)nc1-c1ccc(F)cc1F` [VX-702] here?
A: Its value is “no impact”.

Q: How did the “impact to MYOG mRNA expression” value (myogenin (MYOG) mRNA) turn out when `COc1nccc(-c2c(-c3ccc(F)cc3)ncn2C2CCC(O)CC2)n1` (stereo not drawn) [SB239063] was run?
A: Its value is “no impact”.

Q: With `CCc1nc(-c2cccc(C)c2)c(-c2ccnc(NC(=O)c3ccccc3)c2)s1` [TAK-715] as the compound, how does the “impact to MYOG mRNA expression” value (myogenin (MYOG) mRNA) read?
A: The value was “no impact”.

Q: Which results are given for `Cn1c(=O)c(Oc2ccc(F)cc2F)cc2cnc(NC(CCO)CCO)nc21` [FTX-839, Pamapimod]?
A: apoptosis (active caspase-3) across FSHD1 and FSHD2 lines (active Caspase-3): reduction; MBD3L2 mRNA in FSHD1 and FSHD2 primary patient myoblast lines ([1]; 1 μM, to levels similar to healthy control lines): reduction; MBD3L2 mRNA levels normalized to POLR2A mRNA ([1]; FSHD myotubes, 10, 100, and 1000 nM vs DMSO): dose-dependently reduced; MBD3L2 expression levels in four FSHD patient lines ([1]; FTCE-016, -020, -197, -196 myotubes, 1 μM, to levels similar to healthy controls): reduced; impact to MYOG mRNA expression (myogenin (MYOG) mRNA): no impact

Q: Which results are given for “FTX-2: DUX4 sequence-directed antisense oligonucleotide purchased from Exiqon, CAGCGTCGGAAGGTGG (SEQ ID NO:18) (listed as DNA, chemistry not given here)”?
A: DUX4 expression vs DMSO vehicle control (DUX4-fl mRNA; 1 μM ASO): reduced; DUX4 expression, different dilutions (DUX4-fl mRNA; different dilutions of the ASO): dose dependent reduction; expression of DUX4 downstream target genes ZSCAN4, TRIM43, MBD3L2, LEUTX, and KHDC1L vs DMSO [2]: reduced; MBD3L2 expression, different dilutions ([1]; FSHD myotubes, different dilutions of the ASO): dose dependent reduction
